Literature values, collected in patent US20050147665A1, “Pharmaceutical and nutritional compositions” (Laxdale Limited, priority 1999, published 2005).

Settings: patients with end-stage renal disease; lowering homocysteine by treatment with folic acid

Structure (SMILES): Nc1nc2ncc(CNc3ccc(C(=O)N[C@@H](CCC(=O)O)C(=O)O)cc3)nc2c(=O)[nH]1 [folic acid]
- elevations of DGLA and AA levels: significant in the cases of DGLA and AA
- elevations of EPA and DHA levels: not significant in the cases of EPA and DHA
